The text below walks through data of patent US9045524B2, “Selective caspase inhibitors and uses thereof” (NOVAGENESIS FOUNDATION, priority 2009, dated 2015).

Where a name gives a salt, the structure may show the parent alone. Read-outs that look alike come from different tables or passages of the source. Square brackets hold non-standard residues; d marks the D form. Peptide text beside a SMILES is read from it. * marks the point of attachment. Phg = N[C@H](C(=O)O)c1ccccc1; Cbz = O=C(OCc1ccccc1)*; OtBu = CC(C)(C)O* Some results are limits rather than exact numbers.

Assay [1] deals with Caspase-1 (Homo sapiens (Human), UniProt P29466). The assay is described as follows: Caspase-1 Inhibitor Drug Screening Kit, fluorometric (AFC liberation). The class given is biochemical. The note with it: for IC50: 30-minute incubation at 37° C., approximations of the average values, read-out: Caspase enzymatic activity, IC50 (uM) Caspase 1.
Chain of Caspase-1 (P29466 120-404): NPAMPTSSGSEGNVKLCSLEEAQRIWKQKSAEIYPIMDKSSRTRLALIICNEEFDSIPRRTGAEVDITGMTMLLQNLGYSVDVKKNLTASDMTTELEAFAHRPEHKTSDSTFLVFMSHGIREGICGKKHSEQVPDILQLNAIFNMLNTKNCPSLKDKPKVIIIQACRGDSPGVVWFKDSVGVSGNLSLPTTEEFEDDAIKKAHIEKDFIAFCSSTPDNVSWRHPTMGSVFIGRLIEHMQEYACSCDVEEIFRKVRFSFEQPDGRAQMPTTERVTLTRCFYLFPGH
Description: (§1) The level of inhibition of caspase-1, -3, -5, -7, -9 activity was determined by comparison of the relative fluorescence intensity in samples with or without the compound.
Assay [2] addresses Caspase-3 (Homo sapiens (Human), UniProt P42574). The assay is described as follows: Caspase-3 Inhibitor Drug Screening Kit, fluorometric (AFC liberation). In kind it is biochemical.
Description: as §1
In assay [3] the target is Caspase-5 (Homo sapiens (Human), UniProt P51878). Nature of the assay: Caspase-5 Inhibitor Drug Screening Kit, fluorometric (AFC liberation). Particulars: for IC50: 30-minute incubation at 37° C., approximations of the average values, read-out: Caspase enzymatic activity, IC50 (uM) Caspase 5. The class given is biochemical.
Chain of Caspase-5 (P51878 137-434): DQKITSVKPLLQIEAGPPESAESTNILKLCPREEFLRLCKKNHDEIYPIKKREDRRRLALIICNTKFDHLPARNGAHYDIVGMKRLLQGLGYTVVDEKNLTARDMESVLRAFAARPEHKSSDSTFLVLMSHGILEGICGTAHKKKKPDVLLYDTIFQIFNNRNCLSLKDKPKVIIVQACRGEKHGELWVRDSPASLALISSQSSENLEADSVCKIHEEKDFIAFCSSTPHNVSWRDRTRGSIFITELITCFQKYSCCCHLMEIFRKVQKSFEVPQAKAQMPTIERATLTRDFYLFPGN
Description: as §1
Assay [4] concerns the target Caspase-7 (Homo sapiens (Human), UniProt P55210). The assay is described as follows: Caspase-7 Inhibitor Drug Screening Kit, fluorometric (AFC liberation). In kind it is biochemical. Particulars: 30-minute incubation at 37° C.; approximations of the average values; read-out: Caspase enzymatic activity, IC50 (uM) Caspase 7.
Description: as §1
Assay [5] concerns the target Caspase-9 (Homo sapiens (Human), UniProt P55211). The assay is described as follows: Caspase-9 Inhibitor Drug Screening Kit, fluorometric (AFC liberation). The class given is biochemical. The note with it: for IC50: 30-minute incubation at 37° C., approximations of the average values, read-out: Caspase enzymatic activity, IC50 (uM) Caspase 9.
Description: as §1
Assay [6] deals with proteolytic cleavage of PARP (poly ADP-ribose polymerase) in Hela cells. Nature of the assay: Inhibition of staurosporine-induced PARP cleavage in live Hela cells. In kind it is cell-based. The note with it: for inhibition at 50 µM: Homo sapiens, HeLa; for effectivity in inhibiting PARP cleavage: staurosporine. Here is the method:
To test the efficacy of caspase-3 inhibitors at the cellular level, the ability of selected compounds to inhibit the proteolytic cleavage of PARP (poly ADP-ribose polymerase) was evaluated in live Hela cells.
Briefly, in this assay Hela cells are seeded in 96 well plates and incubated for 4 hours with staurosporine, a well characterized inducer of apoptosis, alone or together with different concentrations of compound (50, 25, 10 and 3 uM). After formaldehyde-based fixation, the cells are stained with a fluorescein-labeled anti-cleaved PARP antibody (Cell signaling, Cat#: 9547) and counterstained with Hoechst33342 (Invitrogen, Cat#: H3570) to mark all nuclei. Fluorescence images are taken on a Cellomics™ microscope system (Thermo Scientific, Pittsburgh, USA) with the Hoechst stain in the blue channel and the cleaved PARP antibody stain in the green channel. The percentage of cleaved PARP positive cells is determined by calculating the ratio between nuclei with a cleaved PARP antibody staining above a certain threshold and all (Hoechst positive) nuclei. The efficacy of caspase-3 inhibition is determined by calculating the ratio between cleaved PARP positive cells after staurosporine incubation together with compounds and staurosporine incubation without compounds.

Assay [7] has as its system Glo3/7. The assay is described as follows: Glo3/7 assay. In kind it is biochemical.
The mark [8] stands for this setting: 30-minute incubation at 37° C., approximations of the average values, read-out: Caspase enzymatic activity, IC50 (uM) Caspase 3.
[9] abbreviates: 4 h, read-out: % inhibition of PARP cleavage at 50 uM compound, Hela cells, staurosporine 4 hours, 50 uM compound.
The mark [10] stands for this setting: Hela cells, 50 uM, read-out: % of inhibition with compound relative to DEVDFMK.
[11] abbreviates: at the tested dose-range (1 to 3333 nM).

Chain of Caspase-7 (P55210 whole entry): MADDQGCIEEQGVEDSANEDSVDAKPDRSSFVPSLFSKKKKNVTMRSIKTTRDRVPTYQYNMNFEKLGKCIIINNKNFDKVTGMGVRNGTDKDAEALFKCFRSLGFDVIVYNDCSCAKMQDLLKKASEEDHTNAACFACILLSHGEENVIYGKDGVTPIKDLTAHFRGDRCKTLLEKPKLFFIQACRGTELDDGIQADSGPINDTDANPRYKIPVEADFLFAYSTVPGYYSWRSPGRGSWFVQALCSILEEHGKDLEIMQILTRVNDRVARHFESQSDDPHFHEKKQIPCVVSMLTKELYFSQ
Chain of Caspase-3 (P42574 29-277): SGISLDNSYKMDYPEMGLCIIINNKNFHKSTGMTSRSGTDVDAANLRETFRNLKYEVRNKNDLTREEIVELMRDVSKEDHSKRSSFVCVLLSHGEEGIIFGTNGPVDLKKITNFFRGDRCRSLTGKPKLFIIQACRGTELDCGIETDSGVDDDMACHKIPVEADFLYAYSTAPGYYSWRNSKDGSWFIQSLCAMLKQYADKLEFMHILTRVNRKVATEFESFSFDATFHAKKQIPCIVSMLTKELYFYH
Chain of Caspase-9 (P55211 whole entry): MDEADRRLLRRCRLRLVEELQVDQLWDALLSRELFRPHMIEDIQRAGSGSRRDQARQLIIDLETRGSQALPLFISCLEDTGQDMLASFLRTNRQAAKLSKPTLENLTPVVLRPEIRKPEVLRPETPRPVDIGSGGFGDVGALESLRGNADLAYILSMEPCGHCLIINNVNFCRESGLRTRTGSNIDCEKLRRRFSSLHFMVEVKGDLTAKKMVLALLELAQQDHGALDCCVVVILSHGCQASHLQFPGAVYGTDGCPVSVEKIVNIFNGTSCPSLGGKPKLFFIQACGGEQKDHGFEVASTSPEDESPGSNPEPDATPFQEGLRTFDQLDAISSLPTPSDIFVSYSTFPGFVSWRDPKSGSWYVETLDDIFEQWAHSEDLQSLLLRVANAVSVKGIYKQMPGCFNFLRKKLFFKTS

`CC(C)[C@H](NC(=O)[C@@H](NC(=O)[C@H](CC(=O)OC(C)(C)C)NC(=O)OCc1ccccc1)c1ccccc1)C(=O)O` [Compound 16, Z-Asp(β-tert-butyl)-Phg-Val-OH] (Cbz-Asp(OtBu)-[Phg]-Val-OH): the IC50 in assay [1] is more than 3.33 µM; in assay [2] (setting [8]), more than 2 µM; in assay [3], more than 3.33 µM; in assay [4], more than 3.33 µM; in assay [5], more than 3.33 µM; in assay [7], more than 50 µM. In addition, the “activity against caspase-3” value in assay [2] is given as “devoid of any activity”. In addition, the inhibition at 50 µM is 13% in assay [6] (setting [9]) and 23% in assay [6] (setting [10]).

In the case of `CC(C)(C)OC(=O)C[C@H](N)/C=C/S(C)(=O)=O.Cc1ccc(S(=O)(=O)O)cc1` [Compound 33, Asp(β-tert-butyl)methyl Vinyl Sulfone Tosyl Salt], the IC50 in assay [1] was more than 3.33 µM; in assay [2] (setting [8]), more than 10 µM; in assay [3], more than 3.33 µM; in assay [4], more than 3.33 µM; in assay [5], more than 3.33 µM; in assay [7] it was more than 50 µM. Further, in assay [2], the “activity against caspase-3” value was “devoid of any activity”. In addition, the inhibition at 50 µM in assay [6] (setting [9]) amounted to 30%; in assay [6] (setting [10]), 50%.

With `CC(C)(C)OC(=O)C[C@H](N)/C=C/S(=O)(=O)c1ccccc1` [Compound 37, Asp-vinyl Phenyl Sulfone Salt Form], the IC50 in assay [1] was more than 3.33 µM; in assay [2] (setting [8]), more than 2 µM; in assay [3], more than 3.33 µM; in assay [4], more than 3.33 µM; in assay [5], more than 3.33 µM; in assay [7] it was more than 50 µM. The inhibition at 50 µM in assay [6] (setting [9]) stood at 20%; in assay [6] (setting [10]) it was 35%.

Take `CC(C)[C@H](NC(=O)[C@H](Cc1ccc2ccccc2n1)NC(=O)[C@H](CC(=O)O)NC(=O)OCc1ccccc1)C(=O)N[C@H](/C=C(\Cl)S(C)(=O)=O)CC(=O)O` [Compound 48, Z-Asp-Ala(2′-quinolyl)-Val-Asp-achlorovinyl methylsulfone]: the IC50 in assay [1] is more than 3.33 µM; in assay [2] (setting [8]), 0.01 µM; in assay [2] (read-out: IC50 caspase-3), 0.008 to 0.03 µM; in assay [3], more than 3.33 µM; in assay [4], 0.4 µM; in assay [5], 1.2 µM. It took 0.1 µM to reach half-maximal inhibition in assay [7] (IC50). For the same molecule, in assay [6] (Hela cells), the “effectivity in inhibiting PARP cleavage” value was “showing effectivity especially relative to DEVD-fmk”.

Consider `Cc1ccc(S(=O)(=O)N[C@@H](Cc2ccc3ccccc3n2)C(=O)N[C@H](C(=O)N[C@H](/C=C(\Cl)S(C)(=O)=O)CC(=O)O)C(C)C)cc1` [Compound 50], for which the IC50 is more than 3.33 µM in assay [1]; more than 3.33 µM in assay [2] (setting [8]); more than 3.33 µM in assay [3]; more than 3.33 µM in assay [4]; more than 3.33 µM in assay [5]; 40 µM in assay [7]. In addition, the inhibition at 50 µM in assay [6] (setting [9]) and in assay [6] (setting [10]) was 0% throughout.

As for `CC(C)[C@H](NC(=O)[C@H](Cc1ccc2ccccc2n1)NC(=O)[C@H](CC(=O)O)NC(=O)OCc1ccccc1)C(=O)N[C@H](/C=C/S(C)(=O)=O)CC(=O)O` [Compound 55, Z-Asp-Ala(2′-quinolyl)-Val-Aspmethyl vinyl sulfone], the IC50 in assay [1] was more than 10 µM; in assay [3], more than 10 µM; in assay [4], 1.4 µM; in assay [5] it was more than 3.33 µM; in assay [7] it was 0.1 µM. The “inhibitory activity for caspase-1” value in assay [1] (setting [11]) is listed as “No significant inhibitory activity”. Besides, the “inhibitory activity for caspase-5” value in assay [3] (setting [11]) is given as “No significant inhibitory activity”. Also, the “inhibitory activity for caspase-9” value in assay [5] (setting [11]) is reported as “No significant inhibitory activity”. Besides, the “effectivity in inhibiting PARP cleavage” value in assay [6] (Hela cells) was “showing effectivity especially relative to DEVD-fmk”.

As for `CC(C)[C@H](NC(=O)[C@H](Cc1ccc2ccccc2n1)NC(=O)[C@H](CC(=O)OC(C)(C)C)NC(=O)OCc1ccccc1)C(=O)N[C@H](/C=C/S(=O)(=O)N1CCOCC1)CC(=O)OC(C)(C)C` [Compound 66, Z-Asp(β-tert-Butyl)-Ala(2′-quinolyl)-Val-Asp(β-tert-Butyl)morpholine Vinyl Sulfone], the IC50 in assay [1] was more than 3.33 µM; in assay [2] (setting [8]) it was 0.2 µM; in assay [3], more than 3.33 µM; in assay [4] it was more than 3.33 µM; in assay [5], more than 3.33 µM; in assay [7] it was 1.4 µM. Further, in assay [6] (setting [10]), the inhibition at 50 µM was 35%.

For the molecule `CC(C)[C@H](NC(=O)[C@@H](NC(=O)[C@H](CC(=O)O)NC(=O)OCc1ccccc1)c1ccccc1)C(=O)N[C@H](/C=C/S(=O)(=O)c1ccccc1)CC(=O)O` [Compound 69, Z-Asp-Phg-Val-Asp-phenyl Vinylsulfone], the IC50 in assay [1] is more than 3.33 µM; in assay [2] (setting [8]) it was 0.1 µM; in assay [3] it was more than 10 µM; in assay [4], 1.8 µM; in assay [5], more than 3.33 µM; in assay [7], 1.4 µM. Also, the inhibition at 50 µM is 20% in assay [6] (setting [9]) and 35% in assay [6] (setting [10]).

Regarding `CC(C)[C@H](NC(=O)C(Cc1ccc2ccccc2n1)NC(=O)[C@H](CC(=O)O)NC(=O)OCc1ccccc1)C(=O)N[C@H](/C=C/S(C)(=O)=O)CC(=O)O` (stereo partly shown) [Compound 71, Z-Asp-(D,L Ala(2′-quinolyl))-Val-Aspmethyl Vinylsulfone], the IC50 is more than 10 µM in assay [1]; more than 10 µM in assay [3]; 8.9 µM in assay [4]; more than 10 µM in assay [5]; 0.3 µM in assay [7]. Further, the results for the inhibition at 50 µM in assay [6] (setting [9]) and in assay [6] (setting [10]) were 20% and 35%, respectively.

Take `CC(C)[C@H](NC(=O)[C@H](Cc1ccc(O)cc1)NC(=O)[C@H](CC(=O)O)NC(=O)OCc1ccccc1)C(=O)N[C@H](/C=C/S(C)(=O)=O)CC(=O)O` [Compound 76, Z-Asp-Tyr-Val-Aspmethyl vinyl sulfone]: the IC50 is more than 3.33 µM in assay [1]; 0.03 µM in assay [2] (setting [8]); more than 3.33 µM in assay [3]; 0.7 µM in assay [4]; more than 3.33 µM in assay [5]; 0.04 µM in assay [7]. The inhibition at 50 µM in assay [6] (setting [9]) is more than 50%.

Turning to `CC(C)[C@H](NC(=O)[C@H](CCC(=O)O)NC(=O)[C@H](Cc1ccc(O)cc1)NC(=O)OCc1ccccc1)C(=O)N[C@H](/C=C/S(C)(=O)=O)CC(=O)O` [Compound 82], the IC50 in assay [1] was 0.5 µM; in assay [2] (setting [8]) it was 0.3 µM; in assay [3], more than 3 µM; in assay [4], more than 5 µM; in assay [5], 1.6 µM; in assay [7], 3.7 µM. Further, the inhibition at 50 µM in assay [6] (setting [9]) and in assay [6] (setting [10]) was 15% throughout.

As to `CC(C)[C@H](NC(=O)[C@H](Cc1ccccn1)NC(=O)[C@H](CC(=O)O)NC(=O)OCc1ccccc1)C(=O)N[C@H](/C=C/S(=O)(=O)c1ccccc1)CC(=O)O` [Compound 85], the IC50 in assay [1] was more than 3.33 µM; in assay [2] (setting [8]), 0.03 µM; in assay [3], more than 3.33 µM; in assay [4] it was 1 µM; in assay [5], more than 3.33 µM; in assay [7] it was 0.3 µM. In assay [6] (setting [10]), the inhibition at 50 µM is 45%.

For the molecule `CS(=O)(=O)/C=C/[C@@H](N)CC(=O)O.Cc1ccc(S(=O)(=O)O)cc1` [Compound 93, AspVSmethyl], the IC50 in assay [1] is more than 3.33 µM; in assay [2] (setting [8]) it was more than 10 µM; in assay [3], more than 3.33 µM; in assay [4], more than 3.33 µM; in assay [5] it was more than 3.33 µM; in assay [7] it was more than 50 µM. Also, in assay [2], the “activity against caspase-3” value was “devoid of any activity”. For the same molecule, the inhibition at 50 µM in assay [6] (setting [9]) came to 15%; in assay [6] (setting [10]), 25%.

Regarding `CC(C)[C@H](NC(=O)[C@H](Cc1ccc(O)cc1)NC(=O)OCc1ccccc1)C(=O)N[C@@H](C)C(=O)N[C@H](/C=C/S(=O)(=O)c1ccccc1)CC(=O)O` [Compound 96, z-Tyr-Val-Ala-AspVS phenyl], the IC50 is 1.3 µM in assay [1]; more than 10 µM in assay [2] (setting [8]); more than 3.33 µM in assay [3]; more than 10 µM in assay [4]; more than 10 µM in assay [5]; more than 50 µM in assay [7]. In addition, the inhibition at 50 µM in assay [6] (setting [9]) worked out at 1%; in assay [6] (setting [10]) it was 2%.
